# Measured values as given in patent publication US9035059B2, “Nitrogen-containing condensed heterocyclic compound” (TAISHO PHARMACEUTICAL CO., LTD., priority 2011, dated 2015).
# Target: human MGAT2 (Homo sapiens (Human), UniProt Q3SYC2)
# Assay: Test Example 1: Test of MGAT2 inhibitory action (human MGAT2 enzyme fraction from Sf9 cells, free CoA detected by CPM fluorescence)
# Format: biochemical
# Details: human MGAT2 enzyme fraction expressed in Sf9 insect cells, 0.5 μg/ml, 2-monooleoyl glycerol 0.78 μM, oleoyl-CoA 5.3 μM, room temperature 20 min, listed as 10-10, read-out: Activity Value [nM] (IC50, concentration at which 50% of produced free CoA was inhibited)
# Protocol: The MGAT2 inhibitory action of the inventive compound was measured by the methods described in Test Examples as shown below. The MGAT enzyme activity was measured based on the amount of an indicator, free Coenzyme A (CoA) which is generated by the reaction shown below, using a sulfhydryl reactive pigment (7-diethylamino-3-(4-maleimidophenyl)-4-methylcoumarin; hereinafter, sometimes abbreviated as CPM).
# A test for MGAT2 inhibitory action of test compounds was conducted in accordance with a partially modified version of the method described in John F. Lockwood et al., Am. J. Physiol. Endocrinol. Metab., 2003, 285, E927.
# Bac-to-Bac Baculovirus Expression System (Life Technologies Japan) was used to express human MGAT2 in insect cells (Sf9) (Life Technologies Japan). These cells were sonicated and centrifuged at 100,000 g×1 hr to give a precipitate. The precipitate was used as a human MGAT2 enzyme fraction in this assay.
# This test was conducted using a black flat-bottom 96-well plate (Corning). A buffer solution with final concentrations of 5 mM magnesium chloride, 100 mM sucrose and 100 mM Tris-HCl (pH=7.5) was prepared and test compounds prepared in various concentrations using dimethyl sulfoxide were added thereto to give a final dimethyl sulfoxide concentration of 1%. The MGAT2 enzyme fraction was added thereto to give a final concentration of 0.5 μg/ml and phosphatidylcholine, 2-monooleoyl glycerol and oleoyl-CoA were added thereto to give final concentrations of 7.5 μM, 0.78 μM and 5.3 μM, respectively, before starting a reaction. The reaction was performed at room temperature for 20 min.
# After 20 min, a CPM-containing solution was added thereto to give a final concentration of 5 μM before stopping the MGAT reaction. After 1 hr, a fluorescence detector (Infinite 200 from Tecan Japan) was used to measure the CPM fluorescence value of each well (excitation 380 nm, emission 460 nm).
# Sequence of human MGAT2 (Q3SYC2 whole entry): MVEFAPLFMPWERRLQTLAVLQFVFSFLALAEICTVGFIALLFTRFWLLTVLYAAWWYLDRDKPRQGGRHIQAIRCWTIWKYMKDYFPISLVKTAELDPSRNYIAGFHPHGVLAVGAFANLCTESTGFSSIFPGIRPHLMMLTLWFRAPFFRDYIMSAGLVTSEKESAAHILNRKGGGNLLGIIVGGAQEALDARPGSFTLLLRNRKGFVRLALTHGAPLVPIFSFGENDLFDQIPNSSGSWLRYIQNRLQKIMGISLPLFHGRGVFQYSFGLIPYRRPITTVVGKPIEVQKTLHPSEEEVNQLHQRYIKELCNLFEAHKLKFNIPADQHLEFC
row,Compound,IC50
1,CCCCCCCCOc1ccc(NS(=O)(=O)c2ccc3c(c2)CCN(C(C)Cc2ccc(C(C)(C)C)cc2)C3)c(F)c1 (stereo not drawn) [Working Example 10-10],97 nM

# Same assay, conditions: human MGAT2 enzyme fraction expressed in Sf9 insect cells, 0.5 μg/ml, 2-monooleoyl glycerol 0.78 μM, oleoyl-CoA 5.3 μM, room temperature 20 min, read-out: Activity Value [nM] (IC50, concentration at which 50% of produced free CoA was inhibited)
row,Compound,IC50
1,CCCCCCOc1ccc(NS(=O)(=O)c2ccc3c(c2)CCN(C(=O)Nc2ccc(CCCC)cc2)C3)c(F)c1 [14-3],76 nM
2,CC(C)(C)[C@H]1CC[C@H](C(=O)N2CCc3cc(S(=O)(=O)Nc4ccc(CCCC5CCCC5)cc4F)ccc3C2)CC1 [Working Example 1-6],88 nM
3,CCCCCCOc1ccc(NS(=O)(=O)c2ccc3c(c2)CCN(CCc2ncc(C(C)(C)C)cn2)C3)c(F)c1 [Working Example 9-21],164 nM
4,"CC(C)(C)c1ccc(CCN2CCc3cc(S(=O)(=O)Nc4ccc(OCCC5CCCCC5)cc4F)ccc3C2)cc1 [Working Example 5-1, 2-[2-(4-tert-Butylphenyl)ethyl]-N-[4-(2-cyclohexylethoxy)-2-fluorophenyl]-1,2,3,4-tetrahydroisoquinoline-6-sulfonamide]",76 nM
5,CCCCCCCc1ccc(NS(=O)(=O)c2ccc3c(c2)CCN(CCc2ccc(C(C)(C)C)cc2)C3)c(F)c1 [Working Example 6-18],35 nM
6,"CCCCCCCOc1ccc(NS(=O)(=O)c2ccc3c(c2)CCN(CCc2ccc(C(C)(C)C)cc2)C3)c(F)c1 [17-1, 2-[2-(4-tert-Butylphenyl)ethyl]-N-[2-fluoro-4-(heptyloxy)phenyl]-1,2,3,4-tetrahydroisoquinoline-6-sulfonamide]",40 nM
7,CC(C)(C)c1ccc(NC(=O)N2Cc3ccc(S(=O)(=O)Nc4ccc(OCCOC5CCCC5)cc4F)cc3C2)cc1 [18-29],128 nM
8,CC(C)Oc1ccc(CN2CCc3cc(S(=O)(=O)Nc4ccc(CCCC5CCCC5)cc4F)ccc3C2)cc1 [Working Example 7-45],199 nM

# Target: MGAT2 (microsomal fraction of human small intestine) (Homo sapiens (Human), UniProt Q3SYC2)
# Assay: Test Example 2: Test of MGAT2 inhibitory action (microsomal fraction of human small intestine, 3H-labeled 2-monooleoyl glycerol)
# Format: biochemical
# Details: microsomal fraction of human small intestine 5 μg/ml; 4 μM oleoyl-CoA, 1.25 μM 2-monooleoyl glycerol, 0.125 μM 3H-labeled 2-monooleoyl glycerol; room temperature 30 min; read-out: Activity Value [nM] (IC50, concentration at which 50% of the products 3H-labeled dioleoyl glycerol and trioleoyl glycerol was inhibited)
# Protocol: An MGAT2 inhibition test for test compounds was conducted in accordance with a partially modified version of the method described in John F. Lockwood et al., Am. J. Physiol. Endocrinol. Metab., 2003, 285, E927.
# A 10 mg/mL microsomal fraction of human small intestine (duodenum- and jejunum-derived fraction purchased from Becton Dickinson Japan) was used as an enzyme source.
# The test was conducted using a flat-bottom 96-well plate (Corning).
# A buffer solution with final concentrations of 5 mM magnesium chloride, 1.25 mg/ml bovine serum albumin and 100 mM Tris-HCl (pH=7.5) was prepared and the microsomal fraction of human small intestine was added thereto to give a final concentration of 5 μg/ml. […] Thereafter, final concentrations of 5 mM magnesium chloride, 1.25 mg/ml bovine serum albumin, 100 mM Tris-HCl (pH=7.5), 4 μM oleoyl-CoA, 1.25 μM 2-monooleoyl glycerol and 0.125 μM ^3H-labeled 2-monooleoyl glycerol (Muromachi Yakuhin Co., Ltd.) were added thereto to give a total volume of 100 μl. This mixture was reacted at room temperature for 30 min.
# The reaction was stopped by adding an equal amount of isopropanol to the reaction mixture. The substrate contained in the reaction mixture (^3H-labeled 2-monooleoyl glycerol) and the reaction products (^3H-labeled dioleoyl glycerol and trioleoyl glycerol) were separated by adsorbing them onto an octadecylsilane resin (Wako gel 50C18) (Wako Pure Chemical Industries, Ltd.), removing the substrate by use of 80% isopropanol, and then eluting the reaction products with 100% isopropanol. The amounts of the reaction products were measured with MicroBeta (PerkinElmer Japan).
# Sequence of MGAT2 (microsomal fraction of human small intestine) (Q3SYC2 whole entry): as above
row,Compound,IC50
1,Cc1cc(CN2CCc3cc(S(=O)(=O)Nc4ccc(CCCC5CCCC5)cc4F)ccc3C2)c(C)n1-c1ccncc1 [Working Example 7-88],145 nM
2,CC(C)(C)n1cc(CCN2CCc3cc(S(=O)(=O)Nc4ccc(CCCC5CCCC5)cc4F)ccc3C2)cn1 [Working Example 7-91],140 nM
3,CCn1cc(CN2CCc3cc(S(=O)(=O)Nc4ccc(CCCC5CCCC5)cc4F)ccc3C2)cn1 [Working Example 6-82],182 nM
4,CCCn1cc(CN2CCc3cc(S(=O)(=O)Nc4ccc(CCCC5CCCC5)cc4F)ccc3C2)cn1 [Working Example 2-8],213 nM
5,Cc1c(CN2CCc3cc(S(=O)(=O)Nc4ccc(CCCC5CCCC5)cc4F)ccc3C2)cnn1-c1ccccc1 [Working Example 7-70],81 nM
6,CC(C)(C)c1ccc(CCN2CCc3cc(S(=O)(=O)Nc4ccc(OCCCOCC(F)(F)F)cc4F)ccc3C2)cc1 [Working Example 8-12],158 nM
7,CC(C)(C)c1ccc(CCN2CCc3cc(S(=O)(=O)Nc4ccc(OCCCOC5CCCC5)cc4F)ccc3C2)cc1 [Working Example 8-14],68 nM
8,CC(C)Cn1cc(CN2CCc3cc(S(=O)(=O)Nc4ccc(CCCC5CCCC5)cc4F)ccc3C2)cn1 [Working Example 2-6],174 nM
9,CC(C)(C)c1ncc(CCN2CCc3cc(S(=O)(=O)Nc4ccc(CCCC5CCCC5)cc4F)ccc3C2)s1 [Working Example 6-88],248 nM
10,CC(C)(C)c1cc(CN2CCc3cc(S(=O)(=O)Nc4ccc(CCCC5CCCC5)cc4F)ccc3C2)ccn1 [Working Example 6-85],71 nM
11,Cc1ccc(-n2cc(CN3CCc4cc(S(=O)(=O)Nc5ccc(CCCC6CCCC6)cc5F)ccc4C3)cn2)cc1 [Working Example 7-76],16 nM
12,O=S(=O)(Nc1ccc(CCCC2CCCC2)cc1F)c1ccc2c(c1)CCN(CCc1ccc(C(F)(F)F)cn1)C2 [Working Example 9-24],46 nM
13,Cc1cc(CN2CCc3cc(S(=O)(=O)Nc4ccc(CCCC5CCCC5)cc4F)ccc3C2)c(C)n1-c1cccc(C(F)(F)F)c1 [Working Example 7-81],45 nM
14,CC(C)(C)c1ccc(CCN2CCc3cc(S(=O)(=O)Nc4ccc(OCCC5CCCC5)cc4F)ccc3C2)cc1 [Working Example 8-5],29 nM
15,"C[C@@H](c1ccc(C(C)(C)C)nc1)N1CCc2cc(S(=O)(=O)Nc3ccc(CCCC4CCCC4)cc3F)ccc2C1 [24-2, 2-[(1S)-1-(6-tert-butylpyridin-3-yl)ethyl]-N-[4-(3-cyclopentylpropyl)-2-fluorophenyl]-1,2,3,4-tetrahydroisoquinoline-6-sulfonamide]",29 nM
16,CC(C)(C)c1ccc(CCN2CCc3cc(S(=O)(=O)Nc4ccc(OCCOCC5CCCO5)cc4F)ccc3C2)cc1 (stereo not drawn) [Working Example 8-9],160 nM
17,CC(C)(C)c1ccc(CCN2CCc3cc(S(=O)(=O)Nc4ccc(OCCOCC5CCCCO5)cc4F)ccc3C2)cc1 (stereo not drawn) [Working Example 8-8],178 nM
18,O=S(=O)(Nc1ccc(CCCC2CCCC2)cc1F)c1ccc2c(c1)CCN(Cc1cnn(CC3CC3)c1)C2 [Working Example 2-7],234 nM
19,CC(C)(C)c1cnc(CCN2CCc3cc(S(=O)(=O)Nc4ccc(CCCC5CCCC5)cc4F)ccc3C2)cn1 [Working Example 9-23],46 nM
20,Cc1nn(C)c(C)c1CN1CCc2cc(S(=O)(=O)Nc3ccc(CCCC4CCCC4)cc3F)ccc2C1 [Working Example 7-82],189 nM
21,CC(C)(C)c1cc(CN2CCc3cc(S(=O)(=O)Nc4ccc(OCCC5CCOCC5)cc4F)ccc3C2)ccn1 [Working Example 8-7],235 nM
22,CC(C)(C)c1ccc(CCN2CCc3cc(S(=O)(=O)Nc4ccc(OCCOC5CCCCC5)cc4F)ccc3C2)cc1 [Working Example 8-13],137 nM
23,O=S(=O)(Nc1ccc(CCCC2CCCC2)cc1F)c1ccc2c(c1)CCN(Cc1cnc(-c3ccc(Cl)cc3)s1)C2 [Working Example 7-74],105 nM
24,O=S(=O)(Nc1ccc(OCCC2CCOCC2)cc1F)c1ccc2c(c1)CCN(Cc1cnc(C(F)(F)F)nc1)C2 [Working Example 6-83],193 nM
25,CC(C)(C)c1ccc(CCN2CCc3cc(S(=O)(=O)Nc4ccc(OCC[C@H]5CCOC[C@@H]5F)cc4F)ccc3C2)cc1 [Working Example 8-15],204 nM

# The remaining lines, values ahead:
row,IC50,Compound
1,223 nM,CC(C)(C)c1ccc(CC(C)(C)N2CCc3cc(S(=O)(=O)Nc4ccc(OCCC5CCOCC5)cc4F)ccc3C2)cc1 [20-3]
2,57 nM,"CC(c1cnc(C(C)(C)C)nc1)N1CCc2cc(S(=O)(=O)Nc3ccc(CCCC4CCCC4)cc3F)ccc2C1 (single isomer, unassigned) [24-7]"
3,115 nM,CC(c1ccc(OCC(F)(F)F)nc1)N1CCc2cc(S(=O)(=O)Nc3ccc(CCCC4CCCC4)cc3F)ccc2C1 (stereo not drawn) [23-6]
4,5 nM,CC(C)(C)c1ccc(C(C)(C)N2CCc3cc(S(=O)(=O)Nc4ccc(CCCC5CCCC5)cc4F)ccc3C2)cn1 [20-4]
5,34 nM,"CC(c1cnc(C(C)(C)C)nc1)N1CCc2cc(S(=O)(=O)Nc3ccc(CCCC4CCCC4)cc3F)ccc2C1 (single isomer, unassigned) [24-8]"
6,42 nM,"CC(c1ccc(C(F)(F)F)nc1)N1CCc2cc(S(=O)(=O)Nc3ccc(CCCC4CCCC4)cc3F)ccc2C1 (single isomer, unassigned) [24-3]"
7,14 nM,CC(C)(C)c1ccc(CC(C)(C)N2CCc3cc(S(=O)(=O)Nc4ccc(CCCC5CCCC5)cc4F)ccc3C2)cc1 [20-2]
8,185 nM,"CC(c1ccc(C(F)(F)F)nc1)N1CCc2cc(S(=O)(=O)Nc3ccc(CCCC4CCCC4)cc3F)ccc2C1 (single isomer, unassigned) [24-4]"
